Legend:
[1] = biological target: human SGLT1 (Homo sapiens (Human), UniProt P13866); assay: SGLT1 assay: analogous test with hSGLT1 cDNA expressed in CHO-K1 or HEK293 cells; assay type: cell-based; conditions: n = 1-4; 14C-AMG uptake, cells expressing hSGLT1
Method: (§1) The SGLT-2 assay is carried out as follows: CHO-hSGLT2 cells are cultivated in Ham's F12 Medium (BioWhittaker) with 10% foetal calf serum and 250 μg/mL zeocin (Invitrogen), and HEK293-hSGLT2 cells are cultivated in DMEM medium with 10% foetal calf serum and 250 μg/mL zeocin (Invitrogen). The cells are detached from the culture flasks by washing twice with PBS and subsequently treating with trypsin/EDTA. After the addition of cell culture medium the cells are centrifuged, resuspended in culture medium and counted in a Casy cell counter. Then 40,000 cells per well are seeded into a white, 96-well plate coated with poly-D-lysine and incubated overnight at 37° C., 5% CO2. The cells are washed twice with 250 μl of assay buffer (Hanks Balanced Salt Solution, 137 mM NaCl, 5.4 mM KCl, 2.8 mM CaCl2, 1.2 mM MgSO4 and 10 mM HEPES (pH 7.4), 50 μg/mL of gentamycin). 250 μl of assay buffer and 5 μl of test compound are then added to each well and the plate is incubated for a further 15 minutes in the incubator. 5 μl of 10% DMSO are used as the negative control. The reaction is started by adding 5 μl of 14 C-AMG (0.05 μCi) to each well. After 2 hours' incubation at 37° C., 5% CO2, the cells are washed again with 250 μl of PBS […] and then lysed by the addition of 25 μl of 0.1 N NaOH (5 min. at 37° C.). 200 μl of MicroScint20 (Packard) are added to each well and incubation is continued for a further 20 min at 37° C. After this incubation the radioactivity of the 14 C-AMG absorbed is measured in a Topcount (Packard) using a 14 C scintillation program.
To determine the selectivity with respect to human SGLT1 an analogous test is set up in which the cDNA for hSGLTI (Genbank Ace. No. NM000343) instead of hSGLT2 cDNA is expressed in CHO-K1 or HEK293 cells.

[2] = biological target: human sodium glucose co-transporter 2 (Homo sapiens (Human), UniProt P31639); assay: SGLT-2 assay: 14C-AMG uptake in CHO-hSGLT2 or HEK-hSGLT2 cells; assay type: cell-based; conditions: n = 1-4, cells stably transfected with hSGLT2, read-out: SGLT2 IC50 nM (n = 1-4)
Method: These cell lines transport 14 C-labelled alpha-methyl-glucopyranoside (14 C-AMG, Amersham) into the interior of the cell in sodium-dependent manner.
as §1

Sequence of human SGLT1 (P13866 whole entry): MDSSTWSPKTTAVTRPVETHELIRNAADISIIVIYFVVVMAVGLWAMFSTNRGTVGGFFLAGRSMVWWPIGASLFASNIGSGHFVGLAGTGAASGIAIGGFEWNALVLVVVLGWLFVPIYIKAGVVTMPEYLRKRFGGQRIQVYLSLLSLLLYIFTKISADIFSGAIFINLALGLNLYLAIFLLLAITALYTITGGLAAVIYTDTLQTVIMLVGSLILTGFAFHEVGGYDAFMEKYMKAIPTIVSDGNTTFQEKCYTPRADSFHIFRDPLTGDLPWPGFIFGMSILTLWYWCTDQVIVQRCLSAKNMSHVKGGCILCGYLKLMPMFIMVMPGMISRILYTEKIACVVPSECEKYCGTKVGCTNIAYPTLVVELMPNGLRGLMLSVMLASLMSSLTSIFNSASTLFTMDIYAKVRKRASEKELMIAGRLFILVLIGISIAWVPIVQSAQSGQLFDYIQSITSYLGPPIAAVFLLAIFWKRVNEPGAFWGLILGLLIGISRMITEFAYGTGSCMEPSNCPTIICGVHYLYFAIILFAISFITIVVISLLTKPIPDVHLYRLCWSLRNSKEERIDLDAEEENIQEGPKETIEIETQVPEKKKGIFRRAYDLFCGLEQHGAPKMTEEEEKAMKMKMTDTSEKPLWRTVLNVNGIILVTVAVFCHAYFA
Sequence of human sodium glucose co-transporter 2 (P31639 whole entry): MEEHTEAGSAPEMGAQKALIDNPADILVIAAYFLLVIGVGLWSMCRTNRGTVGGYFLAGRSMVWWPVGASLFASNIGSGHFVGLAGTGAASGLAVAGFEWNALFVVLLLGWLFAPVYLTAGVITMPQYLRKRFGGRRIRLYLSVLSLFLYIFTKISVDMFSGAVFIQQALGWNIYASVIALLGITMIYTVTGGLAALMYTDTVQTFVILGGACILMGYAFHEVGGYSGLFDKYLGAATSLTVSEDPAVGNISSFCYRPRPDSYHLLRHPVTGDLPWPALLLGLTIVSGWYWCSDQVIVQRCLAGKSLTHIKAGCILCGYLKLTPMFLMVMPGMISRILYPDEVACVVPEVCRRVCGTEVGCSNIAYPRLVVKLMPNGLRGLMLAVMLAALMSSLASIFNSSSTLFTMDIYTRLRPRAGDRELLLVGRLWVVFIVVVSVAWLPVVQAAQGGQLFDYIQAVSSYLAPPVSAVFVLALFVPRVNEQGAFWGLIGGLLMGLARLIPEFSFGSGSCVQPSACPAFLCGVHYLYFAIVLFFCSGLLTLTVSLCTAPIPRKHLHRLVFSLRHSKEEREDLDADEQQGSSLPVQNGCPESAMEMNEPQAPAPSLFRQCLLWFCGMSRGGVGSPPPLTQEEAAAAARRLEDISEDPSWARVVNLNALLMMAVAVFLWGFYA

Row | IC50 [2] [nM] | Compound | IC50 [1] [nM]
1 | 0.4 | OC[C@H]1O[C@@H](c2ccc(Cl)c(Cc3ccc4c(c3)CCO4)c2)[C@H](O)[C@@H](O)[C@@H]1O [Example 22, (2S,3R,4R,5S,6R)-2-[4-Chloro-3-(2,3-dihydro-benzofuran-5-ylmethyl)-phenyl]-6-hydroxymethyl-tetrahydro-pyran-3,4,5-triol] | –
2 | 7.2 | CCN1CCOc2ccc(Cc3cc([C@@H]4O[C@H](CO)[C@@H](O)[C@H](O)[C@H]4O)ccc3Cl)cc21 [Example 9, (2S,3R,4R,5S,6R)-2-[4-Chloro-3-(4-ethyl-3,4-dihydro-2H-benzo[1,4]oxazin-6-ylmethyl)-phenyl]-6-hydroxymethyl-tetrahydro-pyran-3,4,5-triol] | –
3 | 16 | OC[C@H]1O[C@@H](c2ccc(Cl)c(Cc3ccc4c(c3)OCCN4C3CC3)c2)[C@H](O)[C@@H](O)[C@@H]1O [Example 3, (2S,3R,4R,5S,6R)-2-[4-Chloro-3-(4-cyclopropyl-3,4-dihydro-2Hbenzo[1,4]oxazin-7ylmethyl)-phenyl]-6-hydroxymethyltetrahydropyran3,4,5-triol] | –
4 | 65 | OC[C@H]1O[C@@H](c2ccc(Cl)c(Cc3ccc4c(c3)N(Cc3ccccc3)CCO4)c2)[C@H](O)[C@@H](O)[C@@H]1O [Example 4, (2S,3R,4R,5S,6R)-2-[3-(4-Benzyl-3,4-dihydro-2H-benzo[1,4]oxazin-6-ylmethyl)-4-chloro-phenyl]-6-hydroxymethyl-tetrahydro-pyran-3,4,5-triol] | –
5 | 28 | OC[C@H]1O[C@@H](c2ccc(Cl)c(Cc3ccc4c(c3)C(O)CCO4)c2)[C@H](O)[C@@H](O)[C@@H]1O (stereo partly drawn) [Example 36, (2S,3R,4R,5S,6R)-2-[4-Chloro-3-(4-hydroxy-chroman-6-ylmethyl)-phenyl]-6-hydroxymethyl-tetrahydro-pyran-3,4,5-triol] | –
6 | 18 | OC[C@H]1O[C@@H](c2ccc(Cl)c(Cc3ccc4c(c3)N(CC3CC3)CCO4)c2)[C@H](O)[C@@H](O)[C@@H]1O [Example 10, (2S,3R,4R,5S,6R)-2-[4-Chloro-3-(4-cyclopropylmethyl-3,4-dihydro-2H-benzo[1,4]oxazin-6-ylmethyl)-phenyl]-6-hydroxymethyl-tetrahydro-pyran-3,4,5-triol] | –
7 | 14.4 | OC[C@H]1O[C@@H](c2ccc(Cl)c(Cc3ccc4c(c3)CCC3(CCCC3)O4)c2)[C@H](O)[C@@H](O)[C@@H]1O [Example 38, (2S,3R,4R,5S,6R)-2-[4-Chloro-3-(spiro[chromane-2,1′-cyclopentane]-6-ylmethyl)phenyl]-6-(hydroxymethyl)tetrahydropyran-3,4,5-triol] | –

Row | Compound | IC50 [2] [nM] | IC50 [1] [nM]
8 | OC[C@H]1O[C@@H](c2ccc(Cl)c(Cc3ccc4c(c3)CCN4)c2)[C@H](O)[C@@H](O)[C@@H]1O [Example 17, (2S,3R,4R,5S,6R)-2-[4-Chloro-3-(2,3-dihydro-1H-indol-5-ylmethyl)-phenyl]-6-hydroxymethyl-tetrahydro-pyran-3,4,5-triol] | 0.8 | 480
9 | OC[C@H]1O[C@@H](c2ccc(C3CC3)c(Cc3ccc4c(c3)NCCO4)c2)[C@H](O)[C@@H](O)[C@@H]1O [Example 65, (2S,3R,4R,5S,6R)-2-[4-Cyclopropyl-3-(3,4-dihydro-2H-benzo[1,4]oxazin-6-ylmethyl)-phenyl]-6-hydroxymethyl-tetrahydro-pyran-3,4,5-triol] | 2.7 | 170
10 | OC[C@H]1O[C@@H](c2ccc(Cl)c(Cc3ccc4c(c3)C3(CCO4)CC3)c2)[C@H](O)[C@@H](O)[C@@H]1O [Example 29, (2S,3R,4R,5S,6R)-2-[4-Chloro-3-(4,4-spiro-cyclopropyl-chroman-6-ylmethyl)-phenyl]-6-hydroxymethyl-tetrahydro-pyran-3,4,5-triol] | 84.5 | 7000
11 | COc1ccc([C@@H]2O[C@H](CO)[C@@H](O)[C@H](O)[C@H]2O)cc1Cc1ccc2c(c1)NCCO2 [Example 31, (2S,3R,4R,5S,6R)-2-[3-(3,4-Dihydro-2H-benzo[1,4]oxazin-6-ylmethyl)-4-methoxy-phenyl]-6-hydroxymethyl-tetrahydro-pyran-3,4,5-triol] | 1.2 | 404

From patent publication USRE49080E1, “Glycoside derivatives and uses thereof” (Novartis AG, priority 2009, dated 2022)
